Patent publication US20200339691A1, “PROTEINACEOUS MOLECULES AND USES THEREFOR” (priority 2018, published 2020)
Where a SMILES comes first, the peptide text is derived from it. The star is where a group is joined. Myristoyl = CCCCCCCCCCCCCC(=O)*

What was measured:
[1] = test system: CD44^hiCD24^lo CSCs in MDA-MB-231 cells; test: FACS analysis of CD44^hiCD24^lo cancer stem cells in MDA-MB-231 cells treated with P1 analogues; format: cell-based, human; conditions: 50 μM peptide, 48 hours; for CD44^hiCD24^lo CSCs (%) / COI, Live Single CD44^hiCD24^lo CSCs (Cell Count): n = 1; for Average Inhibition of CSCs (%) / CD44^hiCD24^lo CSCs (%) Repeat 1 / CD44^hiCD24^lo CSCs (%) Repeat 2 / CD44^hiCD24^lo CSCs (%) Repeat 3: n = 3
Protocol: Analogues of P1 (Table 6) were designed and synthesized in accordance with the procedure of Example 5. The ability of these analogues to inhibit cancer stem cells was determined using FACS analysis on MDA-MB-231 cells, which constitutively contain approximately 90% CD44^hiCD24^lo cancer stem cells, treated with the peptides.
(§1) Non-adherent cells were removed during the washing steps.

MDA-MB-231 cells = format: cell-based, human; conditions: 50 μM peptide, 48 hours, n = 1
Source text: as §1
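Throughout, for COI, Live Single Cells (Cell Count): live means Hoechst-negative events among single cells.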

Compound | Inhibition of CSCs (%) Repeat 1 [1] | Inhibition of CSCs (%) Repeat 2 [1] | Inhibition of CSCs (%) Repeat 3 [1] | CD44^hiCD24^lo CSCs (%) [1] | COI, Live Single CD44^hiCD24^lo CSCs (Cell Count) [1] | Average Inhibition of CSCs (%) [1] | CD44^hiCD24^lo CSCs (%) Repeat 1 [1] | CD44^hiCD24^lo CSCs (%) Repeat 2 [1] | CD44^hiCD24^lo CSCs (%) Repeat 3 [1] | COI (Cell Count) (MDA-MB-231 cells) | COI, Live Single Cells (Cell Count) (MDA-MB-231 cells) | COI, Single (Cell Count) (MDA-MB-231 cells) | Total Cell Count (MDA-MB-231 cells)
CCCCCCCCCCCCCC(=O)N[C@H](C(=O)N[C@@H](Cc1ccccc1)C(=O)N[C@@H](C)C(=O)N[C@@H](Cc1ccccc1)C(=O)N[C@@H](CCCNC(=N)N)C(=O)N[C@@H](CC(C)C)C(=O)N[C@@H](CCCNC(=N)N)C(=O)N[C@@H](CCCCN)C(=O)NCC(=O)N[C@@H](CCCNC(=N)N)C(=O)N[C@@H](CCSC)C(=O)N[C@@H](CCSC)C(=O)N[C@@H](CC(=O)O)C(=O)N[C@H](C(=O)N[C@@H](CCCCN)C(=O)N[C@@H](CCCCN)C(N)=O)C(C)C)[C@@H](C)O [Peptide 2815304, Myristoyl-TFAFRLRKGRMMDVKK-NH2] (Myristoyl-TFAFRLRKGRMMDVKK-NH2) | 43.62% | 47.79% | 51.20% | 68.03% | 83 | 47.54% | 50.53% | 46.84% | 43.79% | 157 | 122 | 137 | 4317
CCCCCCCCCCCCCC(=O)N[C@H](C(=O)N[C@@H](Cc1ccccc1)C(=O)N[C@H](C(=O)N[C@@H](Cc1ccccc1)C(=O)N[C@@H](CCCNC(=N)N)C(=O)N[C@@H](CC(C)C)C(=O)N[C@@H](CCCNC(=N)N)C(=O)N[C@@H](CCCCN)C(=O)NCC(=O)N[C@@H](CCCNC(=N)N)C(=O)N[C@@H](CCSC)C(=O)N[C@@H](CCSC)C(=O)N[C@@H](CC(=O)O)C(=O)N[C@H](C(=O)N[C@@H](CCCCN)C(=O)N[C@@H](C)C(N)=O)C(C)C)[C@@H](C)CC)[C@@H](C)O [Peptide 2815317, Myristoyl-TFIFRLRKGRMMDVKA-NH2] (Myristoyl-TFIFRLRKGRMMDVKA-NH2) | 47.53% | 46.46% | 63.38% | 40.91% | 18 | 52.46% | 47.02% | 48.03% | 32.86% | 88 | 44 | 79 | 8821
CCCCCCCCCCCCCC(=O)N[C@@H](CC(C)C)C(=O)N[C@H](C(=O)N[C@@H](Cc1ccccc1)C(=O)N[C@H](C(=O)N[C@@H](Cc1ccccc1)C(=O)N[C@@H](CCCNC(=N)N)C(=O)N[C@@H](CC(C)C)C(=O)N[C@@H](CCCNC(=N)N)C(=O)N[C@@H](CCCCN)C(=O)NCC(=O)N[C@@H](CCC(=O)O)C(=O)N[C@@H](CCSC)C(=O)N[C@@H](CCSC)C(=O)N[C@@H](CC(=O)O)C(=O)N[C@H](C(=O)N[C@@H](CCCCN)C(=O)N[C@@H](CCCCN)C(N)=O)C(C)C)[C@@H](C)CC)[C@@H](C)O [Peptide 2853830, Myristoyl-LTFIFRLRKGEMMDVKK-NH2] (Myristoyl-LTFIFRLRKGEMMDVKK-NH2) | 45.65% | 53.16% | 55.12% | 29.21% | 1312 | 51.31% | 48.71% | 42.02% | 40.27% | 5072 | 4491 | 4600 | 8489
CCCCCCCCCCCCCC(=O)N[C@@H](C)C(=O)N[C@H](C(=O)N[C@@H](Cc1ccccc1)C(=O)N[C@H](C(=O)N[C@@H](Cc1ccccc1)C(=O)N[C@@H](CCCNC(=N)N)C(=O)N[C@@H](CC(C)C)C(=O)N[C@@H](CCCNC(=N)N)C(=O)N[C@@H](CCCCN)C(=O)NCC(=O)N[C@@H](CCCNC(=N)N)C(=O)N[C@@H](CCSC)C(=O)N[C@@H](CCSC)C(=O)N[C@@H](CC(=O)O)C(=O)N[C@H](C(=O)N[C@@H](CCCCN)C(=O)N[C@@H](CCCCN)C(N)=O)C(C)C)[C@@H](C)CC)[C@@H](C)O [Peptide 2853801, Myristoyl-ATFIFRLRKGRMMDVKK-NH2] (Myristoyl-ATFIFRLRKGRMMDVKK-NH2) | 93.01% | 94.77% | 94.78% | 5.39% | 102 | 94.19% | 6.27% | 4.69% | 4.68% | 2375 | 1894 | 2024 | 8558
CCCCCCCCCCCCCC(=O)N[C@@H](CC(C)C)C(=O)N[C@H](C(=O)N[C@@H](Cc1ccccc1)C(=O)N[C@H](C(=O)N[C@@H](CCC(=O)O)C(=O)N[C@@H](CCCNC(=N)N)C(=O)N[C@@H](CC(C)C)C(=O)N[C@@H](CCCNC(=N)N)C(=O)N[C@@H](CCCCN)C(=O)NCC(=O)N[C@@H](CCCNC(=N)N)C(=O)N[C@@H](CCSC)C(=O)N[C@@H](CCSC)C(=O)N[C@@H](CC(=O)O)C(=O)N[C@H](C(=O)N[C@@H](CCCCN)C(=O)N[C@@H](CCCCN)C(N)=O)C(C)C)[C@@H](C)CC)[C@@H](C)O [Peptide 2853813, Myristoyl-LTFIERLRKGRMMDVKK-NH2] (Myristoyl-LTFIERLRKGRMMDVKK-NH2) | 77.05% | 75.44% | 67.63% | 27.78% | 5 | 73.37% | 20.57% | 22.04% | 29.05% | 55 | 18 | 48 | 867
CCCCCCCCCCCCCC(=O)N[C@@H](CC(C)C)C(=O)N[C@H](C(=O)N[C@@H](Cc1ccccc1)C(=O)N[C@H](C(=O)N[C@@H](Cc1ccccc1)C(=O)N[C@@H](CCCNC(=N)N)C(=O)N[C@@H](CCCCN)C(=O)N[C@@H](CCCNC(=N)N)C(=O)N[C@@H](CCCCN)C(=O)NCC(=O)N[C@@H](CCCNC(=N)N)C(=O)N[C@@H](CCSC)C(=O)N[C@@H](CCSC)C(=O)N[C@@H](CC(=O)O)C(=O)N[C@H](C(=O)N[C@@H](CCCCN)C(=O)N[C@@H](CCCCN)C(N)=O)C(C)C)[C@@H](C)CC)[C@@H](C)O [Peptide 2853822, Myristoyl-LTFIFRKRKGRMMDVKK-NH2] (Myristoyl-LTFIFRKRKGRMMDVKK-NH2) | 81.93% | 81.80% | 81.03% | 4.78% | 31 | 81.59% | 16.19% | 16.33% | 17.02% | 768 | 648 | 657 | 3204
CCCCCCCCCCCCCC(=O)N[C@@H](CC(C)C)C(=O)N[C@H](C(=O)N[C@@H](Cc1ccccc1)C(=O)N[C@@H](CCCCN)C(=O)N[C@@H](Cc1ccccc1)C(=O)N[C@@H](CCCNC(=N)N)C(=O)N[C@@H](CC(C)C)C(=O)N[C@@H](CCCNC(=N)N)C(=O)N[C@@H](CCCCN)C(=O)NCC(=O)N[C@@H](CCCNC(=N)N)C(=O)N[C@@H](CCSC)C(=O)N[C@@H](CCSC)C(=O)N[C@@H](CC(=O)O)C(=O)N[C@H](C(=O)N[C@@H](CCCCN)C(=O)N[C@@H](CCCCN)C(N)=O)C(C)C)[C@@H](C)O [Peptide 2853811, Myristoyl-LTFKFRLRKGRMMDVKK-NH2] (Myristoyl-LTFKFRLRKGRMMDVKK-NH2) | 57.93% | 62.10% | 67.22% | 39.06% | 25 | 62.42% | 37.70% | 34.00% | 29.41% | 79 | 64 | 69 | 1274
